Test results from PMC8119899, “A Single Mutation in the Outer Lipid-Facing Helix of a Pentameric Ligand-Gated Ion Channel Affects Channel Function Through a Radially-Propagating Mechanism” (Frontiers in Molecular Biosciences, 2021).
Changes are numbered by the printed parent chain.

Experiments:
Assay type in all cases: cell-based
5-HT3A receptor C290A = target: T1, 5-HT3A receptor C290A (Mus musculus, UniProt P23979, C317A); test: FlexStation membrane potential dye, 5-HT response, C290A receptor in HEK293 cells; set-up: expressed in transfected cells; host or cells: HEK293; conditions: mean and SEM, n ≥ 3
T1 sequence (P23979 24-489 C317A): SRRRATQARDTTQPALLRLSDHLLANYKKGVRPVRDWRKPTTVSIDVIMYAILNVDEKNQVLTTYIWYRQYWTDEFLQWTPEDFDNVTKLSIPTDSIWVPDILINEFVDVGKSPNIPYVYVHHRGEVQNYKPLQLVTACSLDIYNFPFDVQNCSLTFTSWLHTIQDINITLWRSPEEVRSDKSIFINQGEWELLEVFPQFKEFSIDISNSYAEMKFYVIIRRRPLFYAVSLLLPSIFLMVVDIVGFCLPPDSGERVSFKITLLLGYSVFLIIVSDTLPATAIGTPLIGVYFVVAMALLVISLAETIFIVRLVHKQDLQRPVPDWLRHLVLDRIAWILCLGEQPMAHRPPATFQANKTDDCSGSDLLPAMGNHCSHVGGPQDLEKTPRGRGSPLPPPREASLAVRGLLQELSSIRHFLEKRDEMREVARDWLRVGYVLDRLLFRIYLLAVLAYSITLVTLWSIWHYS
Procedure: (§1) The mouse 5-HT3A cDNA (Q6J1J7) in pcDNA3.1 (for HEK cell transfection) or pGEMHE (for RNA production) was modified by QuikChange site-directed mutagenesis (Agilent Technologies) to create point mutants (verified by sequencing).
(§2) Human embryonic kidney (HEK) 293 cells were maintained at 37 °C at 5% CO2 in a humidified atmosphere, in Dulbecco's Modified Eagle's Medium/Nutrient Mix F12 (1:1) (Invitrogen, Paisley, UK) with GlutaMAX^TM and 10% fetal bovine serum (GE Healthcare) (DMEM/FBS) and passaged when confluent.
(§3) As described previously (Price and Lummis, [2005]) cells were incubated for 45 min with fluorescent membrane potential-sensitive dye (Membrane Potential Blue kit, Molecular Devices) diluted in Flex buffer (10 mM HEPES, 115 mM NaCl, 1 mM KCl, 1 mM CaCl2, 1 mM MgCl2, and 10 mM glucose, pH 7.4), and subsequently assayed at room temperature for 180 s, with readings every 2 s. […] (log of the concentration of ligand), a is the minimum response, b is the maximum response, and nH is the Hill slope.

5-HT3A receptor K255L = target: T2, 5-HT3A receptor K255L (Mus musculus, UniProt P23979, K282L); test: FlexStation membrane potential dye, 5-HT response, K255L receptor in HEK293 cells; set-up: key: Mutants that did not respond in the functional assay are marked as non functional (NF)
T2 construct: expressed in transfected cells
T2 sequence (P23979 24-489 K282L): T1 sequence (P23979 24-489 C317A) with K259L, A294C
Procedure: as §1
Human embryonic kidney (HEK) 293 cells were maintained at 37 °C at 5% CO2 in a humidified atmosphere, in Dulbecco's Modified Eagle's Medium/Nutrient Mix F12 (1:1) (Invitrogen, Paisley, UK) with GlutaMAX^TM and 10% fetal bovine serum (GE Healthcare) (DMEM/FBS) and passaged when confluent. Five micrograms of WT or mutant 5-HT3A DNA and 30 μl polyethyleneamine (Polysciences) incubated for 10 min in 1 mL DMEM was added to 60% confluent HEK293 cells for transfection, and cells grown for 2 days before assays.
as §3

WT 5-HT3A receptor = target: T3, WT 5-HT3A receptor (Mus musculus, UniProt P23979); test: FlexStation membrane potential dye, 5-HT response, WT receptor in HEK293 cells; conditions: mean and SEM, n ≥ 3
T3 construct: expressed in transfected cells; host or cells: HEK293
T3 sequence (P23979 24-483 isoform P23979-2 limits assumed): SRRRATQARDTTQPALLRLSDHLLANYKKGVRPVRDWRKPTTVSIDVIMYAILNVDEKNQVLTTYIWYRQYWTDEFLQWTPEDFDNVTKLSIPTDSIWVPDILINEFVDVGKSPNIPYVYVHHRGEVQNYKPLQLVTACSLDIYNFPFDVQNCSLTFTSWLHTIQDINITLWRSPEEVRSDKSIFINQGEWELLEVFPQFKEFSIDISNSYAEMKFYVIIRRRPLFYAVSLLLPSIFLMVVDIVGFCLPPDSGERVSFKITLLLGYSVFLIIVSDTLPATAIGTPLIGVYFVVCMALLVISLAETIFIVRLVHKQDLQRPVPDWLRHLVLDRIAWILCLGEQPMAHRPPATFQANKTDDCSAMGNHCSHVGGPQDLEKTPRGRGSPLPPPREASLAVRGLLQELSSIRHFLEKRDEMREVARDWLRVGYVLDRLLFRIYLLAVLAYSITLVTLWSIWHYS
Procedure: as §1, §2, §3

5-HT3A receptor S297A = target: T4, 5-HT3A receptor S297A (Mus musculus, UniProt P23979, S324A); test: FlexStation membrane potential dye, 5-HT response, S297A receptor in HEK293 cells; conditions: mean and SEM, n ≥ 3
T4 construct: expressed in transfected cells; host or cells: HEK293
T4 sequence (P23979 24-489 S324A): T1 sequence (P23979 24-489 C317A) with A294C, S301A
Procedure: as §1, §2, §3

Compound: NCCc1c[nH]c2ccc(O)cc12 [5-HT]
- nH (5-HT3A receptor C290A): 1.2 ± 0.2
- pEC50 (5-HT3A receptor K255L): NF
- nH (Hill slope) (WT 5-HT3A receptor): 3.7 ± 0.3
- nH (5-HT3A receptor S297A): 3.5 ± 0.8
